Data: patent US20240109865A1, “INDAZOLE COMPOUNDS AS KINASE INHIBITORS” (TYRA BIOSCIENCES, INC., priority 2020, published 2024)

How the values were obtained:
[1] = target: FGFR1-BCR Ba/F3 cells (Homo sapiens, UniProt P11362); experiment: Ba/F3 cell viability assay (CellTiter-Glo 2.0), FGFR1-BCR Ba/F3; format: cell-based; details: read-out: Ba/F3 Cells FGFR1 (IC50 nM), 48 hours, Cell Titer Glo 2.0
Outline: (§1)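 IL3-independent Ba/F3 lines driven by FGFR1-BCR or FGFR3-BAIAP2L1 fusions, in RPMI1640/10% FBS. 9-dose 10-fold series from 30 μM, triplicate, 48 h at 37 °C; viability by CellTiter-Glo 2.0 ATP luminescence relative to DMSO control, IC50 from 4-parameter sigmoidal fit.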

[2] = target: FGFR2 (Homo sapiens (Human), UniProt P21802); experiment: Kinase assay, binding constants (Kd), kinase-tagged T7 phage, qPCR
Outline: (§2)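 Competition binding: T7 phage-tagged kinase + biotin-ligand beads + compound (11 pts, 3-fold, 0.9% DMSO). Elution 30 min RT with free ligand; qPCR quantitation. Kd via Hill fit, slope −1.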

[3] = target: FGFR1 (Homo sapiens (Human), UniProt P11362); experiment: as above
Outline: as §2

[4] = target: FGFR3 (V555M) (Homo sapiens (Human), UniProt P22607, V555M); experiment: as above; details: V555M mutant
Outline: as §2

[5] = target: FGFR4 (Homo sapiens (Human), UniProt P22455); experiment: as above
Outline: as §2

[6] = target: FGFR3 (Homo sapiens (Human), UniProt P22607); experiment: as above
Outline: as §2

[7] = system: KG-1 cells (FGFR1-fusion); experiment: KG-1 cancer cell line cell viability assay (CellTiter-Glo 2.0); format: cell-based; details: Homo sapiens, 72 hours, Cell Titer Glo 2.0
Text: (§3) Experimental Purpose: To detect the change of intracellular ATP by Cell Titer-Glo® and to evaluate the inhibitory effect of the compounds on cancer cell lines by determining the in vitro IC50 value of the compounds.
(§4) Cell Titer-Glo® 2.0 Luminescent cell viability assay reagent was purchased from Promega (Madison, WI). RT112/84 and KG-1 cell lines were purchased from American Type Culture Collection (Manassas, VA). UM-UC-14 cell line was purchased from Sigma (St. Louis, MO). RT112/84, UM-UC-14, and KG-1 cells were cultured in RPMI1640 media supplemented with 10% fetal bovine serum. Cultures were maintained at 37° C. in a humidified atmosphere of 5% C02 and 95% air.
(§5) Cell Viability Assay Procedure: Cells were plated in 96-well clear bottom/white plates (Corning #3903) at 10,000 cells/well in 100 μl of media, incubated overnight. The next day, test compound DMSO stock solutions were made at 10 mM and 2 μM final concentration. Compounds were then added to cells in a 9-dose, 10-fold dilution series starting at 30 μM with an HP 300e Digital Dispenser (each dose was applied in triplicate). DMSO was backfilled to each well up to 301 nL total volume of test compound+DMSO, and a total of 301 nL DMSO was added to a control/no test compound well in triplicate. The cells in cell culture plates were incubated with the compounds at 37° C. and 5% C02 for 72 hours. Then 50 μl of Cell Titer Glo 2.0 reagent was added to each well of the cell culture plates. The contents were covered from light and mixed on an orbital shaker at room temperature for 10 min. Luminescence was recorded by a Synergy H1 Microplate Reader (Biotek, Winooski, VT). Cells were assessed as a percentage of DMSO only treated control cells. Curves were plotted and IC50 values were calculated using the GraphPad Prism 8 program based on a sigmoidal dose-response equation (4 parameter).

[8] = system: RT112/84 cells (FGFR3-fusion); experiment: RT112/84 cancer cell line cell viability assay (CellTiter-Glo 2.0); format: cell-based; details: Homo sapiens, 72 hours, Cell Titer Glo 2.0
Text: as §3, §4, §5

[9] = target: FGFR3-BAIAP2L1 Ba/F3 cells (Homo sapiens, UniProt P22607); experiment: Ba/F3 cell viability assay (CellTiter-Glo 2.0), FGFR3-BAIAP2L1 Ba/F3; format: cell-based; details: for Ba/F3 FGFR1/FGFR3 Selectivity: FGFR3 > FGFR1 selectivity ratio in Ba/F3 FGFR fusion cell based assays; for IC50: read-out: Ba/F3 Cells FGFR3 (IC50 nM), FGFR3-BAIAP2L1 Ba/F3 cells, 48 hours, Cell Titer Glo 2.0
Outline: as §1

FGFR3-BAIAP2L1 Ba/F3 cells, sequence (P22607 23-806 limits assumed, change not shown): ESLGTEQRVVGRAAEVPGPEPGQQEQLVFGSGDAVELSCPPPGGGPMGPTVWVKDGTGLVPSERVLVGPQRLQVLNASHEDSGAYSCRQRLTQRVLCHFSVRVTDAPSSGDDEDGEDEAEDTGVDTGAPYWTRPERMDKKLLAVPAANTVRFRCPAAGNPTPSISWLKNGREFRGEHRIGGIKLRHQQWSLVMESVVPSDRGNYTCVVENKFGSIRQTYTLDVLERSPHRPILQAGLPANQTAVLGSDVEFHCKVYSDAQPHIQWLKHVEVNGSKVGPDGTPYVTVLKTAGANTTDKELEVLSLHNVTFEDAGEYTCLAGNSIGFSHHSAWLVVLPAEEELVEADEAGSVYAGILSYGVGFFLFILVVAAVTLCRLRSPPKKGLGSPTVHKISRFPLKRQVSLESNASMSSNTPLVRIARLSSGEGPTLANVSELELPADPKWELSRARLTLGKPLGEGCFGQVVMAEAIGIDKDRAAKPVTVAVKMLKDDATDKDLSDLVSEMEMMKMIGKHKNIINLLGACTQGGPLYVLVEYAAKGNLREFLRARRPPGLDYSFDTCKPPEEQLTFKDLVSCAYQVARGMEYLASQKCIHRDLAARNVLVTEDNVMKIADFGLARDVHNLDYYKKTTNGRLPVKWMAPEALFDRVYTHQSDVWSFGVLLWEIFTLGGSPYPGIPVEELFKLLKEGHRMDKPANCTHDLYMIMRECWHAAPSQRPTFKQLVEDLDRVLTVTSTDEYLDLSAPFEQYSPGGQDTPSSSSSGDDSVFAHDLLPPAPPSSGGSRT
FGFR3, sequence (P22607 23-806): as the sequence (P22607 23-806 limits assumed, change not shown) above
FGFR3 (V555M), sequence (P22607 23-806 V555M): as the sequence (P22607 23-806 limits assumed, change not shown) above, with V533M counted along it
FGFR2, sequence (P21802 22-821): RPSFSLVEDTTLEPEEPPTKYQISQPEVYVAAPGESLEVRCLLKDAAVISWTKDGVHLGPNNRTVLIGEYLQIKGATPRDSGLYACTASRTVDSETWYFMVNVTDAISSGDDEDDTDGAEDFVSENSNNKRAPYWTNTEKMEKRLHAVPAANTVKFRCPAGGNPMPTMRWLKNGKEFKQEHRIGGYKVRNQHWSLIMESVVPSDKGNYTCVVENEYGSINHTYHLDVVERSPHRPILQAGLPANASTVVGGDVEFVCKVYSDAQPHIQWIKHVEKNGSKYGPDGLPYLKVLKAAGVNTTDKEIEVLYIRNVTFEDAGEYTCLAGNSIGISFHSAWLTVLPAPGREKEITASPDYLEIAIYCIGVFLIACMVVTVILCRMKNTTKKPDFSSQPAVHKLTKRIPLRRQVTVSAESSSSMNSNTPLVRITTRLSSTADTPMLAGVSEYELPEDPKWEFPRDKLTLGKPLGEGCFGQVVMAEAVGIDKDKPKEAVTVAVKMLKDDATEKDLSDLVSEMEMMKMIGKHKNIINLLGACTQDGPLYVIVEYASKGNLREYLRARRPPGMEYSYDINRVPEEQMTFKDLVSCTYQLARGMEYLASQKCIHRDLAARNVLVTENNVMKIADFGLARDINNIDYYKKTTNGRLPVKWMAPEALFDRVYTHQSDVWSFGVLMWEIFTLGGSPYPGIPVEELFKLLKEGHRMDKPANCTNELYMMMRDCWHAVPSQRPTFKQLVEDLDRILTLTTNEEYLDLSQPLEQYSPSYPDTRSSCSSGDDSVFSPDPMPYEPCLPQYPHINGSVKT
FGFR1-BCR Ba/F3 cells, sequence (P11362 22-822 limits assumed, change not shown): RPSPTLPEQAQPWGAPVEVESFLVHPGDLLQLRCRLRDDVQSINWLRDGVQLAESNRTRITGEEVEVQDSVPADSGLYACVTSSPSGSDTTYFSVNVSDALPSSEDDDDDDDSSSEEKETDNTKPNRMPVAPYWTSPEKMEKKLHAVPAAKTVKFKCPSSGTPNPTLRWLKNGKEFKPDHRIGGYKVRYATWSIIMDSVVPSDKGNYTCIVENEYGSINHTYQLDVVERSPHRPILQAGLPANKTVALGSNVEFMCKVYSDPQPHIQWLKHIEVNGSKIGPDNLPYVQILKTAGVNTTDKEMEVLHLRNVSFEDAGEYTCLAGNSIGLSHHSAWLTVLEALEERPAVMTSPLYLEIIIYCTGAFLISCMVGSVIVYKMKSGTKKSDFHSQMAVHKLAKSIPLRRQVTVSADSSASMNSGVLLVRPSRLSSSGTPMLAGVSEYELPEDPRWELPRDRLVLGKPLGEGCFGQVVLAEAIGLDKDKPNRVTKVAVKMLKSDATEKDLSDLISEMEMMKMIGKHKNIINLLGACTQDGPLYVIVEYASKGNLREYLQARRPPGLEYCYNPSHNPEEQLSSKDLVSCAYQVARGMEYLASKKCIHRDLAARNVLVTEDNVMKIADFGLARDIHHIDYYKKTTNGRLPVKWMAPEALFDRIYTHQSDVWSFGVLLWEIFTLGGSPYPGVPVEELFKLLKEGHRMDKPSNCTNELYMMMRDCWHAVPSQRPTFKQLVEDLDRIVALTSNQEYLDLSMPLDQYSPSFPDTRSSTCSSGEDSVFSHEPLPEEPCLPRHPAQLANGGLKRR
FGFR1, sequence (P11362 22-822): as the sequence (P11362 22-822 limits assumed, change not shown) above
FGFR4, sequence (P22455 22-802): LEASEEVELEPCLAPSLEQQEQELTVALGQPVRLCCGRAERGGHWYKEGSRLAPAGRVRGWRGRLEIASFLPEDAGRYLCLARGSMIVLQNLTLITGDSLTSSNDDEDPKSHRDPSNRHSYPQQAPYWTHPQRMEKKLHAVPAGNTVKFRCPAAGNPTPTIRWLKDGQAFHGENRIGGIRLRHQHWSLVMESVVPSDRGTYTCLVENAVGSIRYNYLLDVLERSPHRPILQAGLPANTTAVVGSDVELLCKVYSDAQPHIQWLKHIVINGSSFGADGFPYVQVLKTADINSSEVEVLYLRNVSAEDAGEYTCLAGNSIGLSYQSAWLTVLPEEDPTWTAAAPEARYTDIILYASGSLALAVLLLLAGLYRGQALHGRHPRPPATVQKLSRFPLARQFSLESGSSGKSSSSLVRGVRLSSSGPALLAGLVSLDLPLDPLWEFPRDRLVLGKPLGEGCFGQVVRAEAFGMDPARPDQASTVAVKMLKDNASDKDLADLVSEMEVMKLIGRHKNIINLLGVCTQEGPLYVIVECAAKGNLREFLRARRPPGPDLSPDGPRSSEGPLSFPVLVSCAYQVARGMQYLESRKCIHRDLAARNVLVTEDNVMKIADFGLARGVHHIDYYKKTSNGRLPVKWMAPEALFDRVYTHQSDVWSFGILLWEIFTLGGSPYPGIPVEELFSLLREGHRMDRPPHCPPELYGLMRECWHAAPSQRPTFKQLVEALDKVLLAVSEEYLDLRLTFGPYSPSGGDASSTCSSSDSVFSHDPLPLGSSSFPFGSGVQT

| SMILES | IC50 [1] [nM] | Kd [2] [nM] | Kd [3] [nM] | Kd [4] [nM] | Kd [5] [nM] | Kd [6] [nM] | IC50 [7] [nM] | IC50 [8] [nM] | Ba/F3 FGFR1/FGFR3 Selectivity [9] | IC50 [9] [nM] |
| --- | --- | --- | --- | --- | --- | --- | --- | --- | --- | --- |
| C[C@@H](Oc1ccc2[nH]nc(-c3ccc(N4CCC5(CCC(=O)N5)CC4)nc3)c2c1)c1c(Cl)cncc1Cl [Example 29, 8-[5-[5-[(1R)-1-(3,5-dichloro-4-pyridyl)ethoxy]-1H-indazol-3-yl]-2-pyridyl]-1,8-diazaspiro[4.5]decan-2-one] | 100 to 300 | 1 to 20 | 1 to 20 | 1 to 20 | 1 to 20 | 1 to 20 | 20 to 100 | 1 to 20 | 19 | 1 to 20 |
| C[C@@H](Oc1ccc2[nH]nc(-c3ccc(N4CCNC(=O)CC4)nc3)c2c1)c1c(Cl)cncc1Cl [Example 30, 1-[5-[5-[(1R)-1-(3,5-dichloro-4-pyridyl)ethoxy]-1H-indazol-3-yl]-2-pyridyl]-1,4-diazepan-5-one] | 100 to 300 | 1 to 20 | 1 to 20 | 1 to 20 | 1 to 20 | 1 to 20 | 20 to 100 | 1 to 20 | 18 | 1 to 20 |
| CC(C)N1CC2(CN(c3ccc(-c4n[nH]c5ccc(O[C@H](C)c6c(Cl)cncc6Cl)cc45)cn3)C2)C1 [Example 31, 5-[(1R)-1-(3,5-dichloro-4-pyridyl)ethoxy]-3-[6-(2-isopropyl-2,6-diazaspiro[3.3]heptan-6-yl)-3-pyridyl]-1H-indazole] |  | 1 to 20 | 1 to 20 | 1 to 20 | 1 to 20 | 1 to 20 | 20 to 100 | 1 to 20 |  |  |
| C[C@@H](Oc1ccc2[nH]nc(-c3cnc(N4CCC5(CCC(=O)N5)CC4)c(F)c3)c2c1)c1c(Cl)cncc1Cl [Example 42, 8-[5-[5-[(1R)-1-(3,5-dichloro-4-pyridyl)ethoxy]-1H-indazol-3-yl]-3-fluoro-2-pyridyl]-1,8-diazaspiro[4.5]decan-2-one] | 100 to 300 | 20 to 100 | 1 to 20 | 1 to 20 | 1 to 20 | 1 to 20 | 20 to 100 | 1 to 20 | 17 | 1 to 20 |
| C[C@@H](Oc1ccc2[nH]nc(-c3ccc(N4CC5(CCN(S(C)(=O)=O)CC5)C4)nc3)c2c1)c1c(Cl)cncc1Cl [Example 111, 5-[(1R)-1-(3,5-dichloro-4-pyridyl)ethoxy]-3-[6-(7-methylsulfonyl-2,7-diazaspiro[3.5]nonan-2-yl)-3-pyridyl]-1H-indazole] | 100 to 300 | 20 to 100 | 20 to 100 | 1 to 20 | 1 to 20 | 1 to 20 |  | 1 to 20 | 15 | 1 to 20 |
| C[C@@H](Oc1ccc2[nH]nc(-c3ccc(N4CC5(C4)CS(=O)(=O)C5)nc3)c2c1)c1c(Cl)cncc1Cl [Example 112, 6-[5-[5-[(1R)-1-(3,5-dichloro-4-pyridyl)ethoxy]-1H-indazol-3-yl]-2-pyridyl]-2λ^6-thia-6-azaspiro[3.3]heptane 2,2-dioxide] | 100 to 300 | 20 to 100 | 1 to 20 | 1 to 20 | 1 to 20 | 1 to 20 |  | 1 to 20 | 12 | 1 to 20 |
| C[C@@H](Oc1ccc2[nH]nc(-c3ccc(N4CC5(CCS(=O)(=O)CC5)C4)nc3)c2c1)c1c(Cl)cncc1Cl [Example 113, 2-[5-[5-[(1R)-1-(3,5-dichloro-4-pyridyl)ethoxy]-1H-indazol-3-yl]-2-pyridyl]-7λ^6-thia-2-azaspiro[3.5]nonane 7,7-dioxide] | 20 to 100 | 1 to 20 | 1 to 20 | 1 to 20 | 1 to 20 | 1 to 20 |  | 1 to 20 | 11 | 1 to 20 |
| C[C@H](Oc1ccc2[nH]nc(-c3ccc(N4CC5(C4)CN(S(C)(=O)=O)C5)nc3)c2c1)c1c(Cl)cncc1Cl [Example 160, 5-[(1S)-1-(3,5-dichloro-4-pyridyl)ethoxy]-3-[6-(2-methylsulfonyl-2,6-diazaspiro[3.3]heptan-6-yl)-3-pyridyl]-1H-indazole] | > 300 | 100 to 300 | > 300 | 1 to 20 | 100 to 300 | 20 to 100 |  |  | 17 | 100 to 300 |
| C[C@@H](Oc1ccc2[nH]nc(-c3ccc(N4CC5(CCCN(S(C)(=O)=O)C5)C4)nc3)c2c1)c1c(Cl)cncc1Cl [Example 162, 5-[(1R)-1-(3,5-dichloro-4-pyridyl)ethoxy]-3-[6-(8-methylsulfonyl-2,8-diazaspiro[3.5]nonan-2-yl)-3-pyridyl]-1H-indazole] | 100 to 300 | 1 to 20 | 20 to 100 | 1 to 20 | 1 to 20 | 1 to 20 |  |  | 12 | 1 to 20 |
| C[C@@H](Oc1ccc2[nH]nc(-c3ccc(N4CC5(CCN(S(C)(=O)=O)C5)C4)nc3)c2c1)c1c(Cl)cncc1Cl [Example 163, 5-[(1R)-1-(3,5-dichloro-4-pyridyl)ethoxy]-3-[6-(7-methylsulfonyl-2,7-diazaspiro[3.4]octan-2-yl)-3-pyridyl]-1H-indazole] | 20 to 100 | 1 to 20 | 1 to 20 | 1 to 20 | 1 to 20 | 1 to 20 |  |  | 17 | 1 to 20 |
| COC(=O)N1CCCC2(C1)CN(c1ccc(-c3n[nH]c4ccc(O[C@H](C)c5c(Cl)cncc5Cl)cc34)cn1)C2 [Example 165, methyl 2-[5-[5-[(1R)-1-(3,5-dichloro-4-pyridyl)ethoxy]-1H-indazol-3-yl]-2-pyridyl]-2,8-diazaspiro[3.5]nonane-8-carboxylate] | 100 to 300 | 1 to 20 | 20 to 100 | 1 to 20 | 1 to 20 | 1 to 20 |  |  | 16 | 1 to 20 |
| C[C@@H](Oc1ccc2[nH]nc(-c3cnn(C4CCNCC4)c3)c2c1)c1cc(F)cc(F)c1 [Example 166, 5-[(1R)-1-(3,5-difluorophenyl)ethoxy]-3-[1-(4-piperidyl)pyrazol-4-yl]-1H-indazole] | > 300 | 1 to 20 | 20 to 100 | 1 to 20 | > 300 | 1 to 20 |  |  | 6 | 100 to 300 |
| C[C@@H](Oc1ccc2[nH]nc(-c3cnn(C4CCN(C5COC5)CC4)c3)c2c1)c1cc(F)cc(F)c1 [Example 168, 5-[(1R)-1-(3,5-difluorophenyl)ethoxy]-3-[1-[1-(oxetan-3-yl)-4-piperidyl]pyrazol-4-yl]-1H-indazole] | > 300 | 20 to 100 | 100 to 300 | 1 to 20 | > 300 | 1 to 20 |  |  | 8 | 20 to 100 |
| C[C@@H](Oc1ccc2[nH]nc(-c3ccc(N4CC5(C4)CN(S(C)(=O)=O)C5)nc3)c2c1)c1c(Cl)cccc1Cl [Example 170, 5-[(1R)-1-(2,6-dichlorophenyl)ethoxy]-3-[6-(2-methylsulfonyl-2,6-diazaspiro[3.3]heptan-6-yl)-3-pyridyl]-1H-indazole] | > 300 | 20 to 100 | 100 to 300 | 1 to 20 | 100 to 300 | 1 to 20 |  |  | 14 | 20 to 100 |
